Measured values reported in patent publication US8765728B2, “[1,5]-diazocin derivatives” (MelliTech, priority 2009, dated 2014).

Test system: Min6 cell
Test: Insulin secretion response of beta cell line to formula I compounds (insulin ELISA)
Assay type: cell-based
Settings: rank according to % increase versus control at most effective dose
Procedure: The secretory responses of beta cell lines to glucose were tested as described in Merglen et al. Endocrinology, (2004) 145(2):667-78.
Briefly, after incubation with compounds from formula I or control vehicle, cells were maintained for 2 hours in glucose-free culture medium. The cells were then washed twice and preincubated for 30 minutes at 37° C. in glucose-free Krebs-Ringer bicarbonate HEPES buffer (KRBH: 135 mM NaCl, 3.6 mM KCl, 5 mM NaHCO3, 0.5 mM NaH2PO4, 0.5 mM MgCl2, 1.5 mM CaCl2, and 10 mM HEPES, pH 7.4). BSA (0.1%) was added as an insulin carrier. Cells were subsequently washed with glucose-free KRBH and then incubated for 30 minutes at 37° C. in KRBH containing different concentrations of glucose. The reaction was stopped by placing the plates on ice; supernatants were collected to determine insulin secretion and cells were used for intracellular insulin content following acid-ethanol extraction. Insulin was measured by ELISA (Linco) according to the manufacturer's instructions.

Structure (SMILES) | Insulin secretion (Min6 cell) Range 1 to 5
COc1ccc2c(c1)CN(C1CC1)C(=O)CCN2CC(=O)c1cccc(F)c1 [Compound 22, 5-cyclopropyl-1-(2-(3-fluorophenyl)-2-oxoethyl)-8-methoxy-2,3,5,6-tetrahydrobenzo[b][1,5]diazocin-4(1H)-one] | 2 (2: 110-120% of control)
COc1ccc2c(c1)CN(C1CC1)C(=O)CCN2CC(=O)c1ccc(OC(F)(F)F)cc1 [Compound 23, 5-cyclopropyl-8-methoxy-1-(2-oxo-2-(4-(trifluoromethoxy)phenyl)ethyl)-2,3,5,6-tetrahydrobenzo[b][1,5]diazocin-4(1H)-one] | 1 (1: 90-110% of control)
COc1ccc2c(c1)CN(C1CC1)C(=O)CCN2CC(=O)c1ccc(F)c(F)c1 [Compound 24, 5-cyclopropyl-1-(2-(3,4-difluorophenyl)-2-oxoethyl)-8-methoxy-2,3,5,6-tetrahydrobenzo[b][1,5]diazocin-4(1H)-one] | 2 (2: 110-120% of control)
COc1ccc2c(c1)CN(C1CC1)C(=O)CCN2CC(O)c1cc(OC)ccc1OC (stereo not drawn) [Compound 25, 5-cyclopropyl-1-(2-(2,5-dimethoxyphenyl)-2-hydroxyethyl)-8-methoxy-2,3,5,6-tetrahydrobenzo[b][1,5]diazocin-4(1H)-one] | 2 (2: 110-120% of control)
COc1ccc2c(c1)CN(C1CC1)C(=O)CCN2CC(O)c1ccccc1OC (stereo not drawn) [Compound 26, 5-cyclopropyl-1-(2-hydroxy-2-(2-methoxyphenyl)ethyl)-8-methoxy-2,3,5,6-tetrahydrobenzo[b][1,5]diazocin-4(1H)-one] | 2 (2: 110-120% of control)
COc1ccc2c(c1)CN(C1CC1)C(=O)CCN2CC(O)c1ccc(Cl)cc1 (stereo not drawn) [Compound 27, 1-(2-(4-chlorophenyl)-2-hydroxyethyl)-5-cyclopropyl-8-methoxy-2,3,5,6-tetrahydrobenzo[b][1,5]diazocin-4(1H)-one] | 4 (4: 140-170% of control)
COc1ccc2c(c1)CN(C1CC1)C(=O)CCN2CC(O)c1ccc(N2CCCC2)cc1 (stereo not drawn) [Compound 28, 5-cyclopropyl-1-(2-hydroxy-2-(4-(pyrrolidin-1-yl)phenyl)ethyl)-8-methoxy-2,3,5,6-tetrahydrobenzo[b][1,5]diazocin-4(1H)-one] | 3 (3: 120-140% of control)
COc1ccc2c(c1)CN(C1CC1)C(=O)CCN2CC(O)c1ccc2c(c1)OCCO2 (stereo not drawn) [Compound 29, 5-cyclopropyl-1-(2-(2,3-dihydrobenzo[b][1,4]dioxin-6-yl)-2-hydroxyethyl)-8-methoxy-2,3,5,6-tetrahydrobenzo[b][1,5]diazocin-4(1H)-one] | 2 (2: 110-120% of control)
COc1cccc(C(O)CN2CCC(=O)N(C3CC3)Cc3cc(OC)ccc32)c1 (stereo not drawn) [Compound 30, 5-cyclopropyl-1-(2-hydroxy-2-(3-methoxyphenyl)ethyl)-8-methoxy-2,3,5,6-tetrahydrobenzo[b][1,5]diazocin-4(1H)-one] | 1 (1: 90-110% of control)
COc1ccc2c(c1)CN(C1CC1)C(=O)CCN2CC(O)c1cccc(F)c1 (stereo not drawn) [Compound 31, 5-cyclopropyl-1-(2-(3-fluorophenyl)-2-hydroxyethyl)-8-methoxy-2,3,5,6-tetrahydrobenzo[b][1,5]diazocin-4(1H)-one] | 1 (1: 90-110% of control)
COc1ccc(C(O)CN2CCC(=O)N(C3CC3)Cc3cc(OC)ccc32)cc1 (stereo not drawn) [Compound 32, 5-cyclopropyl-1-(2-hydroxy-2-(4-methoxyphenyl)ethyl)-8-methoxy-2,3,5,6-tetrahydrobenzo[b][1,5]diazocin-4(1H)-one] | 3 (3: 120-140% of control)
COc1ccc2c(c1)CN(C1CC1)C(=O)CCN2CC(O)c1ccc(OC(F)(F)F)cc1 (stereo not drawn) [Compound 33, 5-cyclopropyl-1-(2-hydroxy-2-(4-(trifluoromethoxy)phenyl)ethyl)-8-methoxy-2,3,5,6-tetrahydrobenzo[b][1,5]diazocin-4(1H)-one] | 2 (2: 110-120% of control)
COc1ccc2c(c1)CN(C1CC1)C(=O)CCN2CC(O)c1ccc(F)c(F)c1 (stereo not drawn) [Compound 34, 5-cyclopropyl-1-(2-(3,4-difluorophenyl)-2-hydroxyethyl)-8-methoxy-2,3,5,6-tetrahydrobenzo[b][1,5]diazocin-4(1H)-one] | 1 (1: 90-110% of control)
O=C(CN1CCC(=O)N(C2CC2)Cc2cc(F)ccc21)c1ccccc1 [Compound 35, 5-cyclopropyl-8-fluoro-1-(2-oxo-2-phenylethyl)-2,3,5,6-tetrahydrobenzo[b][1,5]diazocin-4(1H)-one] | 1 (1: 90-110% of control)
COc1ccccc1C(=O)CN1CCC(=O)N(C2CC2)Cc2cc(F)ccc21 [Compound 36, 5-cyclopropyl-8-fluoro-1-(2-(2-methoxyphenyl)-2-oxoethyl)-2,3,5,6-tetrahydrobenzo[b][1,5]diazocin-4(1H)-one] | 2 (2: 110-120% of control)
COc1cccc(C(=O)CN2CCC(=O)N(C3CC3)Cc3cc(F)ccc32)c1 [Compound 37, 5-cyclopropyl-8-fluoro-1-(2-(3-methoxyphenyl)-2-oxoethyl)-2,3,5,6-tetrahydrobenzo[b][1,5]diazocin-4(1H)-one] | 4 (4: 140-170% of control)
COc1ccc(C(=O)CN2CCC(=O)N(C3CC3)Cc3cc(F)ccc32)cc1 [Compound 38, 5-cyclopropyl-8-fluoro-1-(2-(4-methoxyphenyl)-2-oxoethyl)-2,3,5,6-tetrahydrobenzo[b][1,5]diazocin-4(1H)-one] | 1 (1: 90-110% of control)
COc1ccc(OC)c(C(=O)CN2CCC(=O)N(C3CC3)Cc3cc(F)ccc32)c1 [Compound 39, 5-cyclopropyl-1-(2-(2,5-dimethoxyphenyl)-2-oxoethyl)-8-fluoro-2,3,5,6-tetrahydrobenzo[b][1,5]diazocin-4(1H)-one] | 3 (3: 120-140% of control)
O=C(CN1CCC(=O)N(C2CC2)Cc2cc(F)ccc21)c1ccc(F)cc1 [Compound 40, 5-cyclopropyl-8-fluoro-1-(2-(4-fluorophenyl)-2-oxoethyl)-2,3,5,6-tetrahydrobenzo[b][1,5]diazocin-4(1H)-one] | 3 (3: 120-140% of control)
O=C(CN1CCC(=O)N(C2CC2)Cc2cc(F)ccc21)c1cccc(F)c1 [Compound 41, 5-cyclopropyl-8-fluoro-1-(2-(3-fluorophenyl)-2-oxoethyl)-2,3,5,6-tetrahydrobenzo[b][1,5]diazocin-4(1H)-one] | 3 (3: 120-140% of control)
O=C(CN1CCC(=O)N(C2CC2)Cc2cc(F)ccc21)c1ccc(OC(F)(F)F)cc1 [Compound 42, 5-cyclopropyl-8-fluoro-1-(2-oxo-2-(4-(trifluoromethoxy)phenyl)ethyl)-2,3,5,6-tetrahydrobenzo[b][1,5]diazocin-4(1H)-one] | 1 (1: 90-110% of control)
